Test results from paper PMC11323563, “Multiple levels of transcriptional regulation control glycolate metabolism in Paracoccus denitrificans” (mBio, 2024).

What was measured:
[1] = target: T1, MGlcR (Paracoccus denitrificans, UniProt A1BAC0); experiment: fluorescence polarization, effector titration of 6FAM-Pglc-MGlcR complex; settings: 0.1-100 mM effector, 750 nM MGlcR, 10 nM Pglc; pH 7.5, room temperature; effector decreasing DNA binding
T1 construct: gene Pden_4400; Ni-NTA purified
T1 sequence (A1BAC0 1-269): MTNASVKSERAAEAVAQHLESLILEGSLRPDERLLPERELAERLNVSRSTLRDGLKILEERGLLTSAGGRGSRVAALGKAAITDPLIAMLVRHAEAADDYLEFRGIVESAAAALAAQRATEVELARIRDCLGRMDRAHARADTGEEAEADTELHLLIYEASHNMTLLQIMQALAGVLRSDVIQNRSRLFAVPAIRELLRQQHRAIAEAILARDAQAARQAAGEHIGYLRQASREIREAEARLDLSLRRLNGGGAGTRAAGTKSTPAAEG

[2] = target: T2, GlcR (Paracoccus denitrificans, UniProt A1BAC0); experiment: EMSA of Pglc DNA-GlcR complex with effector; settings: 0.5-2 mM effector; pH 7.0, 37 °C; effector decreasing DNA binding
T2 construct: gene Pden_4400; full length, pET16b His tag (cutting not mentioned), E. coli BL21 AI; Ni-NTA and size exclusion
T2 sequence (A1BAC0 1-269): T1 sequence (A1BAC0 1-269)

[3] = target: T3, BhcR (Paracoccus denitrificans, UniProt A1B8Z4); experiment: EMSA of Pbhc DNA-BhcR complex with effector; format: binding; settings: 0.1-5 mM effector, pH 7.0, 37 °C
T3 construct: full length, pET16b His tag (cutting not mentioned), E. coli BL21 AI; Ni-NTA and size exclusion

[4] = target: T4, GlcR (Paracoccus denitrificans DSM 413) (UniProt A1BAC0); experiment: EMSA; settings: EMSA: 20 mM K phosphate pH 7.0, 1 mM DTT, 5 mM MgCl2, 50 mM KCl, 15 ug/mL BSA, 50 ug/mL herring sperm DNA, 5% glycerol, 0.1% Tween20, DNA 0.025 pM, 37 C …
T4 sequence: T1 sequence (A1BAC0 1-269)

[5] = target: T5, MGlcR (MBP-GlcR) (Paracoccus denitrificans DSM 413) (UniProt A1BAC0); experiment: fluorescence polarization
T5 sequence: T1 sequence (A1BAC0 1-269)

[6] = target: BhcR (Paracoccus denitrificans DSM 413) (UniProt A1B8Z4); experiment: EMSA; settings: EMSA: 20 mM K phosphate pH 7.0, 1 mM DTT, 5 mM MgCl2, 50 mM KCl, 15 ug/mL BSA, 50 ug/mL herring sperm DNA, 5% glycerol, 0.1% Tween20, DNA 0.025 pM, 37 C …
[7] = effector increasing DNA binding
[8] = EMSA: 20 mM K phosphate pH 7.0, 1 mM DTT, 5 mM MgCl2, 50 mM KCl, 15 ug/mL BSA, 50 ug/mL herring sperm DNA, 5% glycerol, 0.1% Tween20, DNA 0.025 pM, 37 C …

T3 sequence (A1B8Z4 whole entry): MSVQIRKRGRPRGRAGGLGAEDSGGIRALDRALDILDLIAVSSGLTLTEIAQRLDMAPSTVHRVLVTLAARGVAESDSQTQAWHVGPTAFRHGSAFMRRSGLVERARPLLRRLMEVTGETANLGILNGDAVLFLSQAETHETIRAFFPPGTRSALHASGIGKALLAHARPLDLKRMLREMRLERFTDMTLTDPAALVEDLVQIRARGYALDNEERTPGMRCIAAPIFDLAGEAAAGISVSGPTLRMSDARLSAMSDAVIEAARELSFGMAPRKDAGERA
Chain of BhcR (Paracoccus denitrificans DSM 413) (A1B8Z4 whole entry): as above

O=C(O)CO [glycolate]
fluorescence polarization, effector titration of 6FAM-Pglc-MGlcR complex [1]: Titration of the Pglc-MGlcR complex with increasing concentrations of glycolate demonstrated a notable decrease in binding
EMSA of Pglc DNA-GlcR complex with effector [2]: DNA binding was decreased in the presence of glycolate

O=CC(=O)O [glyoxylate]
EMSA of Pbhc DNA-BhcR complex with effector ([3]; effector decreasing DNA binding): the interaction of BhcR with Pbhc was negatively affected by increasing concentrations of glyoxylate

O=C(O)C(=O)O [oxalate]
EMSA of Pbhc DNA-BhcR complex with effector [3, 7]: the DNA-binding interaction was positively affected by the presence of pyruvate or oxalate

CC(=O)C(=O)O [pyruvate]
EMSA of Pbhc DNA-BhcR complex with effector [3, 7]: the DNA-binding interaction was positively affected by the presence of pyruvate or oxalate

CAAGCTCTCCTCCCTTGGTCGAACGGCAGGCCCGTGTCCTGCCCTGCATTCTTGGTATAATTTTCAGACCACATTAGTCAATCGGTATTTTTCTGGACCGACACGCCCGTCCTGTGCTTACATGGCAGGGATCCGACAACCGCATGAGCGCCCATG (double strand) [Pglc 156 bp]
binding [4]: binds

GCTCTCCTCCCTTGGTCGAACGGCAGGCCCGTGTCCTGCCCTGCATTCTTGGTATAATTTTCAGACCACATTAGTCAATCGGTATTTTTCTGGACCGACACGCCCGTCCTGTGCTTACATGGCAGGGATCCGACAACCGCATGAGCGCCC (double strand) [[6FAM]-Pglc]
Kd [5, 8]: 225 nM
binding [5, 8]: binds

GGAATGAAGATCGGGTTCTGGCTGGTCATGGCAATTCCTCCTGCGCTTGTGGACCAAGCTACGTTTTGCTGTCCATTGATGCAATTTTTCTGAAAAATATTTCGCAATCGCGGAAAAATGACCTAAAGTGTCGTGGAATCAGATCGTTGCTCTTTTCCAAAGCCAAAGAGTGATTTTCAACAAACTCAGAAAGTTGTCGAAAGGAAAAATTGAATGTCGGTTCAAATCCGCAAAAGGG (double strand) [Pbhc 238 bp]
binding [6]: binds

[6FAM]-Pglc
Kd ([5]; 10 nM DNA): 225 nM
